This test concerns the target Estrogen receptor beta (Homo sapiens) (UniProt Q92731). As to the kind of experiment: Binding affinity for human ER(estrogen receptor)beta.
Chain of Estrogen receptor beta (Homo sapiens) (Q92731 whole entry): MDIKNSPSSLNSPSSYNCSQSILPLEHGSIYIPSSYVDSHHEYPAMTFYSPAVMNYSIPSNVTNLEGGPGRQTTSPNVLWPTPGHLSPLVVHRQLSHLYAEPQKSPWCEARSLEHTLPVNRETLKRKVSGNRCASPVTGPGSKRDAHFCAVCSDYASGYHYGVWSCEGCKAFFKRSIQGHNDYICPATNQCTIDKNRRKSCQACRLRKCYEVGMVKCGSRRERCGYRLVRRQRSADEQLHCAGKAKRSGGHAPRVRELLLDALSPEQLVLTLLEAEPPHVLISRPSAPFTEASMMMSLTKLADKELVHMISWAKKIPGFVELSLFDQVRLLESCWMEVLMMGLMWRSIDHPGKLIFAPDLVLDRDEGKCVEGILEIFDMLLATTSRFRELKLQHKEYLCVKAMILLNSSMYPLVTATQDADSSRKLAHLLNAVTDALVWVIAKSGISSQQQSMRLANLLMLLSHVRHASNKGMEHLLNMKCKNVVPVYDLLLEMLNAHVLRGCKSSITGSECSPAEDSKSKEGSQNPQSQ
In the case of `C[C@@H]1Cc2cc(O)ccc2C2=C1c1ccc(O)cc1C[C@@H]2C`, the Relative binding affinity came to 254.

Compound `CC1Cc2cc(O)ccc2C2=C1c1ccc(O)cc1C[C@@H]2C` (single isomer, unassigned) displayed a Relative binding affinity of 75. Then `CCC[C@@H]1Cc2cc(O)ccc2C2=C1c1ccc(O)cc1C[C@H]2CCC`, with 26.

Compound `Oc1ccc2c(c1)CCC1=C2CCc2cc(O)ccc21` came in with a Relative binding affinity of 6.5. Then `C[C@]12CC[C@@H]3c4ccc(O)cc4CC[C@H]3[C@@H]1CC[C@@H]2O`, with 100. Then `CCCC1Cc2cc(O)ccc2C2=C1c1ccc(O)cc1CC2CCC` (stereo not drawn), with 92.3; and `CCC[C@H]1Cc2cc(O)ccc2C2=C1c1ccc(O)cc1C[C@@H]2CCC`, with 5.1; and `CC1Cc2cc(O)ccc2C2=C1c1ccc(O)cc1C[C@H]2C` (single isomer, unassigned), with 76.

The values above are taken from ChEMBL document CHEMBL1132262, “Estrogen receptor subtype-selective ligands: asymmetric synthesis and biological evaluation of cis- and trans-5,11-dialkyl- 5,6,11, 12-tetrahydrochrysenes” (J Med Chem, 1999).
